Assay results published in patent US5057493A, “Novel antibiotics R106” (priority 1988, dated 1991).
Starred links: 1 amine or outer side, 2 acyl side, 3 side chain; linkers in the order of their positions; H or OH if unused. Non-standard residues stand in square brackets, D forms with d. Residues, ends and D or L forms follow the SMILES beside them. ξ: configuration not given here. ξNMeVal(3-OH) = CNC(C(=O)O)C(C)(C)O; NMeF = CN[CH](Cc1ccccc1)C(=O)O; X1 = CCC(C)C(O[*:1])C(=O)[*:2]; NMeV = CN[CH](C(=O)O)C(C)C

How the values were obtained:
[1] = test system: Candida glabrata TIMM 1062; test: MIC by agar dilution method, casitone agar; type: cell-based; settings: Table 5
Protocol: (§1) The minimum inhibitory concentration (MIC) of each antibiotic against various fungi was determined by the agar dilution method using casitone agar medium (2.0% glucose, 0.9% bacto-casitone, 1.0% yeast extract, 0.1% KH2 PO4, 0.1% Na2 HPO4, 1.0% sodium citrate, 2.0% agar: concentrations are all by w/v).
(§2) Each minimum growth inhibitory concentration was determined after culturing at 27° C. for 4 days.

[2] = test system: Cryptococcus neoformans TIMM 0354; test: MIC by agar dilution method, casitone agar; type: cell-based; settings: Table 5
Protocol: as §1, §2

[3] = test system: Candida albicans TIMM 0171; test: MIC by agar dilution method, casitone agar; type: cell-based; settings: Table 5
Protocol: as §1, with “The antibiotics R106 of the present invention are active against various fungi including pathogenic fungi. The” for “The”

[4] = test system: Candida kefyr TIMM 0301; test: MIC by agar dilution method, casitone agar; type: cell-based; settings: Table 5
Protocol: as §1, with “The antibiotics R106 of the present invention are active against various fungi including pathogenic fungi. The” for “The”

[5] = test system: Candida albicans TIMM 0136; test: MIC by agar dilution method, casitone agar; type: cell-based; settings: Table 5
Protocol: as §1, with “The antibiotics R106 of the present invention are active against various fungi including pathogenic fungi. The” for “The”

[6] = test system: Candida albicans TIMM 1768; test: MIC by agar dilution method, casitone agar; type: cell-based; settings: Table 5
Protocol: as §1, with “The antibiotics R106 of the present invention are active against various fungi including pathogenic fungi. The” for “The”

[7] = 50% lethal dose (LD50) in mice; type: in vivo
Excerpt: All of the antibiotics R106 show low toxicity. The results of 50% lethal dose (LD50) obtained when each of representative compounds of the present invention was given to mice intravenously, intraperitoneally and orally are shown in Table 7.

| Compound | minimum inhibitory concentration (MIC) [1] | minimum inhibitory concentration (MIC) [2] | minimum inhibitory concentration (MIC) [3] | minimum inhibitory concentration (MIC) [4] | minimum inhibitory concentration (MIC) [5] | minimum inhibitory concentration (MIC) [6] | LD50 ([7]; i.p.) | LD50 ([7]; i.v.) | LD50 ([7]; p.o.) |
| --- | --- | --- | --- | --- | --- | --- | --- | --- | --- |
| CCC(C)C1OC(=O)C(C(C)(C)O)N(C)C(=O)C(CC(C)C)NC(=O)C(C(C)C)N(C)C(=O)C(CC(C)C)NC(=O)C2CCCN2C(=O)C(Cc2ccccc2)N(C)C(=O)C(Cc2ccccc2)NC(=O)C(C(C)C)N(C)C1=O (stereo not drawn) [Compound 9] (cyclo([ξNMeVal(3-OH)][X1][NMeV]F[NMeF]PL[NMeV]L); configuration not given here) | 0.39 | 25 | ≤ 0.05 | 0.20 | ≤ 0.05 | 0.20 | > 200 mg/kg | > 100 mg/kg | > 200 mg/kg |
| CCC(C)C1NC(=O)C2CCCN2C(=O)C(Cc2ccccc2)N(C)C(=O)C(Cc2ccccc2)NC(=O)C(C(C)C)N(C)C(=O)C(C(C)CC)OC(=O)C(C(C)C)N(C)C(=O)C(CC(C)C)NC(=O)C(C(C)C)N(C)C1=O (stereo not drawn) [Compound 7] (cyclo([X1][NMeV]F[NMeF]PI[NMeV]L[NMeV]); configuration not given here) | > 25 | > 25 | 1.56 | 25 | 3.12 | 3.12 | > 200 mg/kg | > 100 mg/kg | > 200 mg/kg |
